For one test, the target named is human α7-AChR (Homo sapiens, UniProt P36544). The test can be described thus: cell-based. The following applies: for IC50: Unlabeled-ligand half-competition concentration. The class given is binding.
The target of test [1] is Human–C. elegans α7-AChR–β-GluCl ECD–TMD chimera (UniProt P36544+Q17328). The test is described as follows: cell-based. In kind it is binding.
Test [2] concerns the target Chicken–C. elegans α7-AChR–β-GluCl ECD–TMD chimera (UniProt P22770+Q17328). The test can be described thus: cell-based. In kind it is binding.
The target of test [3] is T1, Human–C. elegans α7-AChR–β-GluCl chimera S56T + S172T (Homo sapiens, UniProt P36544, S172T/S56T). The test is described as follows: biochemical. To be noted: Unlabeled-ligand half-competition concentration.
For test [4], the target named is T1, Human–C. elegans α7-AChR–β-GluCl chimera S56T + S172T.

This note sets out measurements from publication PMC9136306 (The Journal of General Physiology, 2022).

Where “and” joins values, the source holds several entries; their conditions need not be identical. Identical values can stand only once.

Chain of Chicken–C. elegans α7-AChR–β-GluCl ECD–TMD chimera (P22770 whole entry, looked up, stated change not applied, the tested form may be a part): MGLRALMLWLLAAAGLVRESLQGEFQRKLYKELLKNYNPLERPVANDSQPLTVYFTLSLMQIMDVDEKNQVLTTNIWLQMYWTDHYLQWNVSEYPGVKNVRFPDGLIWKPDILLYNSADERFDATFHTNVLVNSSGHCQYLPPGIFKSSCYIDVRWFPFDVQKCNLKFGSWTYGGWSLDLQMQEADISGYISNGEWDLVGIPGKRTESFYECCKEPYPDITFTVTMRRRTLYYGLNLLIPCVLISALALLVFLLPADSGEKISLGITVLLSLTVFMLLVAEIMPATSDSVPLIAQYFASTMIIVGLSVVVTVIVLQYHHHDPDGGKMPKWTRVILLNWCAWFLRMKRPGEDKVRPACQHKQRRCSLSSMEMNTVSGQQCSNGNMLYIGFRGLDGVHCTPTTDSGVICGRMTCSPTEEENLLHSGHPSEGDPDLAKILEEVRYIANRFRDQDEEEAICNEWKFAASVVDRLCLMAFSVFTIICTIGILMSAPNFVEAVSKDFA
Chain of Chicken–C. elegans α7-AChR–β-GluCl ECD–TMD chimera (Q17328 whole entry, looked up, stated change not applied, the tested form may be a part): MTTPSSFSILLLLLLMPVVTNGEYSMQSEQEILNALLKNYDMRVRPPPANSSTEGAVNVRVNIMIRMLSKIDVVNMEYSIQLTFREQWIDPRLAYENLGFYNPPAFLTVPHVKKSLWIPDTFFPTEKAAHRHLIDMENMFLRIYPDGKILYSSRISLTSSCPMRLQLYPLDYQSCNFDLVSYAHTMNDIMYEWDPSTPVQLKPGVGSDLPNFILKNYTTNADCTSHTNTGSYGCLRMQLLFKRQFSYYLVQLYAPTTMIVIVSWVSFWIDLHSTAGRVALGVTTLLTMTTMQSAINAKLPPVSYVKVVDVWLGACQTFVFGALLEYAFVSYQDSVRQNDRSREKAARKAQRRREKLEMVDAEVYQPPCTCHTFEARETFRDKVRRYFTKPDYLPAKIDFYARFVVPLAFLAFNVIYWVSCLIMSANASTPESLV
T1 sequence (Q17328 245-434): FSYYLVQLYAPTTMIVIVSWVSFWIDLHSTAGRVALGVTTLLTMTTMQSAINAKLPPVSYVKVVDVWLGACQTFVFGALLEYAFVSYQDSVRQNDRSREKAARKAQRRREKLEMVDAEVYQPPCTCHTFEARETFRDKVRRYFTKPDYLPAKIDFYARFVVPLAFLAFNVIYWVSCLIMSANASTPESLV
T1 sequence (P36544 23-230 S56T/S172T): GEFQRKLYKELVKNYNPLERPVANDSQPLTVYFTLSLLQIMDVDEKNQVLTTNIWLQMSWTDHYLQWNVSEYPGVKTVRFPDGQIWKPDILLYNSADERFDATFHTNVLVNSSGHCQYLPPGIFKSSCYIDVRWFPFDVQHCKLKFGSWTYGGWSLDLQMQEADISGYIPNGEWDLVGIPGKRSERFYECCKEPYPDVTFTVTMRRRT
Chain of human α7-AChR (P36544 23-502): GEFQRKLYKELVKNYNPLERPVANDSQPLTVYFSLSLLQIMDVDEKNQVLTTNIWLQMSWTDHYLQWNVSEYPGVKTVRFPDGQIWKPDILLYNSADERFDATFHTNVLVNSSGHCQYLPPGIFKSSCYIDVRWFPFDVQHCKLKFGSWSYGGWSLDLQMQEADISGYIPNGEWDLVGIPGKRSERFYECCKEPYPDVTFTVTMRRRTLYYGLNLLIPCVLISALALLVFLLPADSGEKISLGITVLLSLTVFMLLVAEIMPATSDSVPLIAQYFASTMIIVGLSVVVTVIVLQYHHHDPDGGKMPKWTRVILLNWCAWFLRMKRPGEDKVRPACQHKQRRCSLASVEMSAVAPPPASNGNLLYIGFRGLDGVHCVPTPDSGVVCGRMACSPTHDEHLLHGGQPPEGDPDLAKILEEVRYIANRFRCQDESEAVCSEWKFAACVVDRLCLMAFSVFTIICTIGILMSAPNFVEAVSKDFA
Chain of Human–C. elegans α7-AChR–β-GluCl ECD–TMD chimera (P36544 whole entry, looked up, change not shown, the tested form may be a part): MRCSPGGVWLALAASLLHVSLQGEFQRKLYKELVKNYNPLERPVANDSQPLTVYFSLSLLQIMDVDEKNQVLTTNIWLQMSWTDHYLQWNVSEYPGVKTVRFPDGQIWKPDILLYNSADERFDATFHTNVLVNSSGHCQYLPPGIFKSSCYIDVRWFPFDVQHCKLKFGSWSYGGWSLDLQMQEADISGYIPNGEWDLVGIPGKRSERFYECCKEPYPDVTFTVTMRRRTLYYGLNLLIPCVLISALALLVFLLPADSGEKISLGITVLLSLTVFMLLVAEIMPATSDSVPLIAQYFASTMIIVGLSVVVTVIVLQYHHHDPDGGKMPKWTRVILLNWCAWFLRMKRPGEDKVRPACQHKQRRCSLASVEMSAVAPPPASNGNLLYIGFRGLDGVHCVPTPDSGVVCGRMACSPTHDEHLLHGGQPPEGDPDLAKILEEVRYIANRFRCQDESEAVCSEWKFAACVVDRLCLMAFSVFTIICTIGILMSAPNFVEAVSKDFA
Chain of Human–C. elegans α7-AChR–β-GluCl ECD–TMD chimera (Q17328 whole entry, looked up, change not shown, the tested form may be a part): as the sequence (Q17328 whole entry, looked up, stated change not applied, the tested form may be a part) above

One may read the IC50 as the concentration at which inhibition is half-maximal. For `C[N+](C)(C)CCO` [Choline, choline], at human α7-AChR, the “Unlabeled-ligand nH (Hill coefficient, competition)” value (from here on “Unlabeled-ligand nH”) was 1.28 ± 0.08 and the IC50 came to 204 ± 16 µM.

On to `CN1CCC[C@H]1c1cccnc1` [Nicotine, nicotine], for which the “Unlabeled-ligand nH” value in test [1] was found to be 1.08 ± 0.06; at human α7-AChR, 1.41 ± 0.06; in test [2], 1.80 ± 0.07. The “Hill coefficient, individual curve fitted separately” value at human α7-AChR is 1.50 ± 0.001 and 1.28 ± 0.001 and 1.42 ± 0.13. This molecule also gave an IC50 in test [2] of 3.68 ± 0.11 µM.

Turning to `CCN1C[C@]2(COC(=O)c3ccccc3N3C(=O)C[C@H](C)C3=O)CC[C@H](OC)[C@@]34[C@@H]5C[C@H]6[C@H](OC)[C@@H]5[C@](O)(C[C@@H]6OC)[C@@](O)([C@@H](OC)[C@H]23)[C@@H]14` [MLA, methyllycaconitine], the IC50 is 0.032 µM and 0.0325 µM in test [3]; 0.068 µM and 0.0683 µM in test [1] (Unlabeled-ligand half-competition concentration); 0.0889 ± 0.00854 µM at human α7-AChR; 0.0049 ± 0.00052 µM in test [2]. Besides, the “Unlabeled-ligand nH” value was found to be 1.04 ± 0.08 in test [4], 1.01 ± 0.05 in test [1], 0.95 ± 0.05 on human α7-AChR and 0.990 ± 0.07 in test [2]. In addition, the “difference between closed-state affinities of the chicken and human α7-AChR ECDs” value in test [2] is roughly 14 fold.
